In paper PMC10901349, “Enzymatic properties of UDP-glycosyltransferase 89B1 from radish and modulation of enzyme catalytic activity via loop region mutation” (PLOS ONE, 2024):
Like-named read-outs stand apart in the source and are kept apart here.

Target: T1, Rs89B1 (Raphanus sativus, UniProt A0A6J0K544)
T1 construct: gene LOC108814497; full-length CDS, C-terminal 6xHis tag (kept), expressed in Schizosaccharomyces pombe TN4, HisTrap purified; start MTVNEENT (from primer)
Test: HPLC glucosyltransferase assay, initial rates, curve fitting
Type: biochemical
Conditions: co-substrate UDP-glucose (5.0 mM in basic mix), sodium phosphate pH 7.0, 30°C
Excerpt: HPLC glucosyltransferase assay, initial rates, curve fitting on Rs89B1

T1 sequence (A0A6J0K544 entry or part of it): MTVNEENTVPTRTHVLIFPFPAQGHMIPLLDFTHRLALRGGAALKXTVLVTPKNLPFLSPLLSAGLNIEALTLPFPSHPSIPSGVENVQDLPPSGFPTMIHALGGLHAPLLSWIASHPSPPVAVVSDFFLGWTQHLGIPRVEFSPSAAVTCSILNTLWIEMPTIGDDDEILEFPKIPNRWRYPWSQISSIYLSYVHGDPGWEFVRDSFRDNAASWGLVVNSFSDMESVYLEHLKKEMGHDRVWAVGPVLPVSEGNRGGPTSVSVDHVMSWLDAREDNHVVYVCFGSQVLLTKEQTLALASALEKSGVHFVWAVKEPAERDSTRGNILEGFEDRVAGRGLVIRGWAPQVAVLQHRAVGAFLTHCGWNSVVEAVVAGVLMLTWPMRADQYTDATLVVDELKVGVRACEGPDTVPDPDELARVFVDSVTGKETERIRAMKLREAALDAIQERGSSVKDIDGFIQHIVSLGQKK

Row | Compound | Km [µM] | Km (read-out: Rs89B1_ins / Km) [µM]
1 | O=C(O)c1ccc(O)c(O)c1O [2,3,4-THBA, 2,3,4-trihydroxy benzoic acid] | 138 ± 2 | 128 ± 4.5
2 | O=C(O)c1c(O)cc(O)cc1O [2,4,6-THBA] | 198 ± 7.2 | 688 ± 14.6
3 | O=C(O)c1ccc(O)cc1O [2,4-DHBA] | 182 ± 4.2 | 212 ± 5.8

Now from value to compound:

Row | Km [µM] | Km (read-out: Rs89B1_ins / Km) [µM] | Compound
4 | 773.8 ± 1.6 | 663.2 ± 2.3 | O=C(O)c1cc(O)ccc1O [2,5-DHBA]
5 | 233 ± 12.2 | 251 ± 15.4 | O=C(O)c1ccc(O)cc1 [4-HBA]
